# What was measured:
# [1] = molecular target: T1, human GCN2 full-length protein (Homo sapiens, UniProt Q9P2K8); test: GCN2 enzyme inhibition assay (LanthaScreen TR-FRET); type: biochemical; conditions: GCN2 enzyme inhibitory activity at compound concentration of 3 μM; Table 3-1; 3 µM
# T1 construct: purchased Carna Biosciences, Inc
# How it was run: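 Full-length human GCN2 was preincubated with compound for 1 hr at room temperature, then reacted for 1 hr with substrate and ATP added from a 570 μM ATP / 390 nM substrate solution (stock concentrations). Phosphorylation was detected by TR-FRET with a terbium-labelled anti-eIF2alpha antibody after 1 hr, with enzyme-free wells as control.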
# [2] = test system: ATF4 expression in CCRF-CEM tumor; test: In vivo ATF4 expression suppression assay (Western blot of CCRF-CEM xenograft tumor) in the presence of L-asparaginase; conditions: compound 10 mg/kg oral 8 hr before tumor removal, L-asparaginase 1000 U/kg s.c. 32 hr and 8 hr before, CCRF-CEM xenograft in SCID mouse
# Source text: One million human acute lymphoblastic leukemia cell lines CCRF-CEM obtained from ATCC (American Type Culture Collection) were suspended in Matrigel solution (Corning) and implanted subcutaneously into 6-week-old female SCID mouse (CLEA Japan, Inc.) by injection. The mice in which the tumor engrafted to a size of about 200-1000 mm^3 tumor volume after transplantation were selected and 3 mice per group were used for the experiment. L-asparaginase (Kyowa Hakko Kogyo Co., Ltd.) was subcutaneously administered at a dose of 1000 U/kg 32 hr and 8 hr before tumor removal. A 0.5% methylcellulose suspension of the compound was orally administered at a dose of 10 mg/kg 8 hr before tumor removal. After tumor removal, protein was extracted using Lysing Matrix I tube (MP Biomedicals) containing a protein extract (10% glycerol, 1% sodium dodecyl sulfate, 62.5 mM Tris-HCl [pH 7.5], protease and phosphatase inhibitors [Complete mini and PhosSTOP, Sigma-Aldrich Co. LLC.]) and subjected to Western blot.
# Protein extract solution was subjected to protein quantification with BCA Protein Assay Kit (Thermo Scientific), electrophoresed on 7.5-15% SDS-PAGE gel (DRC), and protein in the gel was transferred to PVDF membrane. The membrane was blocked with Starting Block T20 (PBS) Blocking Buffer (Thermo Scientific). […] Thereafter, chemiluminescence was performed using ImmunoStar LD (Wako Pure Chemical Industries, Ltd.), and luminescence intensity was measured by LAS-3000 image analyzer (Fuji Film Co., Ltd.). Furthermore, the expression level of ATF4 was digitized by quantifying the luminescence intensity using Multi Gauge Ver. […]
# Based on the ATF4 expression level of the control group orally administered with 0.5% methylcellulose suspension free of Example compound and the treatment group orally administered with Example compound suspension, the ATF4 expression inhibition ratio (%) of the test compound at a compound dose 10 mg/kg was calculated by the following formula and the results thereof are shown in Table 6. […]
# [3] = test system: human acute lymphoblastic leukemia cells CCRF-CEM; test: In vivo tumor proliferation inhibitory assay with combined use of asparaginase (CCRF-CEM xenograft); conditions: CCRF-CEM xenograft in SCID mouse
# Source text: One million human acute lymphoblastic leukemia cells CCRF-CEM obtained from ATCC (American Type Culture Collection) were suspended in Matrigel solution (Corning) and implanted subcutaneously into 6-week-old female SCID mouse (CLEA Japan, Inc.) by injection. The mice in which the tumor engrafted to a size of about 200 mm^3 tumor volume after transplantation were selected and 5 mice per group were used for the experiment. A 0.5% methylcellulose suspension of the compound was orally administered twice per day for 9 days. Each compound was administered twice per day and the dose was 10 mg/kg for Example 14 and Example 7, and 6 mg/kg for Example 4. L-asparaginase (Kyowa Hakko Kogyo Co., Ltd.) was subcutaneously administered once per day at a dose of 1000 U/kg. Tumor diameter was measured one day before start of the administration and day 9 of the administration, and the tumor volume was calculated by the formula 1. tumor volume=major axis×minor axis×minor axis×(½) Formula 1
# Tumor proliferation inhibitory rate (%) was calculated by the formula 2. tumor proliferation inhibitory rate (%)=(1−(T9−T0)/(C9−C0))×100 Formula 2 T9: average tumor volume of test drug administration group on day 9 of administration, T0: average tumor volume of test drug administration group one day before start of administration, C9: average tumor volume of control group on day 9 of administration, C0: average tumor volume of control group one day before start of administration
# [4] = test system: osteosarcoma cell line U-2-OS; test: In vitro cell proliferation inhibition assay (CellTiter-Glo, low amino acid media); type: cell-based; conditions: McCoy's 5A low amino acid media, 72 hr, Table 4-1
# How it was run: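 Cells seeded at 1000 per well in McCoy's 5A low amino acid medium (25% amino acid content), then exposed to compound for 72 h at 37° C., 5% CO2. ATP measured by CellTiter-Glo luminescence. Inhibition (%) at 100 nM calculated relative to pre-treatment and untreated control wells.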
# T1 sequence (Q9P2K8 whole entry): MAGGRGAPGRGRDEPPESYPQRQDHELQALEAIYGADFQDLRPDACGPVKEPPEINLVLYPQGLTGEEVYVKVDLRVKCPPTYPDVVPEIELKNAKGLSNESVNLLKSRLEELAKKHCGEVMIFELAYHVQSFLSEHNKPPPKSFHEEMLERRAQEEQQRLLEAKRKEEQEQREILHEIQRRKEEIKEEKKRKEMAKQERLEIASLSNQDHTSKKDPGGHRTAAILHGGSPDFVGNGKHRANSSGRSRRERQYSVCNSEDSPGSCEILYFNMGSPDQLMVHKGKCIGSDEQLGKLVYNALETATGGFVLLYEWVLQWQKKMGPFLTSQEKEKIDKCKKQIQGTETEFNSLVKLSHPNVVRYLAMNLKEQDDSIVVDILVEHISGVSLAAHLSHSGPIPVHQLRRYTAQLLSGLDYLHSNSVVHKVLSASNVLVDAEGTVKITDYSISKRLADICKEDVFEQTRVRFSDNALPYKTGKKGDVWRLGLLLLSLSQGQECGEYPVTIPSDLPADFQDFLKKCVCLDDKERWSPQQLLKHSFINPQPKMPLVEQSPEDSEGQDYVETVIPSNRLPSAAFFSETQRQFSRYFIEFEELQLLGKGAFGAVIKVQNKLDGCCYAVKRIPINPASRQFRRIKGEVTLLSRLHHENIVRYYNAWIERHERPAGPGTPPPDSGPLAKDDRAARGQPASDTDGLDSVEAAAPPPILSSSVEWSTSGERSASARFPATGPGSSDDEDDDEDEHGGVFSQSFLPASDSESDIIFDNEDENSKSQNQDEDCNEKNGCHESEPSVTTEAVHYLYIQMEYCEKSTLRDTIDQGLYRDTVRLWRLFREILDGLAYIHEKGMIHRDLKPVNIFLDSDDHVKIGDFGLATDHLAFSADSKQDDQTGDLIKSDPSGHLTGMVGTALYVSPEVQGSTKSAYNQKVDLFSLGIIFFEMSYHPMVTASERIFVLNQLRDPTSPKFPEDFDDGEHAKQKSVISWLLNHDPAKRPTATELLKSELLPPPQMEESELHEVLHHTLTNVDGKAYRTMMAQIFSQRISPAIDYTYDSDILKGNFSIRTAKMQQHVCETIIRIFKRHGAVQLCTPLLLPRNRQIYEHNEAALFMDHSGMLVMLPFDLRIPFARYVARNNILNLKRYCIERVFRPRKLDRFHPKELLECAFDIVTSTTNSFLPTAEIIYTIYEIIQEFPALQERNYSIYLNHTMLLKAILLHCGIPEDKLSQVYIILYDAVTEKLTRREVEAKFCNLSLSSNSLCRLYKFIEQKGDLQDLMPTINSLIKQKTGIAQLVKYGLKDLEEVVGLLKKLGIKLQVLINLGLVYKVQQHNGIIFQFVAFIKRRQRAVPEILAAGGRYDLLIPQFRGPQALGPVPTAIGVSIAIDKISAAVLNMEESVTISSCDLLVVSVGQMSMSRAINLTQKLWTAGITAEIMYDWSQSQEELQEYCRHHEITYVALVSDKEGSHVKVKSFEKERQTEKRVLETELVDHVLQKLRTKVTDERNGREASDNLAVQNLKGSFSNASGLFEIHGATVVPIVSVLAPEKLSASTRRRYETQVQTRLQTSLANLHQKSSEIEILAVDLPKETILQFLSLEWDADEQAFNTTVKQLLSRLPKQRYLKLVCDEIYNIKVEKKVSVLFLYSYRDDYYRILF
compound,measurement,setting,value
"O=S(=O)(Nc1ccc(F)c(C#Cc2cnc3[nH]ncc3c2)c1F)c1cc(Cl)ccc1Cl [Example 14, 2,5-dichloro-N-(2,4-difluoro-3-(1H-pyrazolo[3,4-b]pyridin-5-ylethynyl)phenyl)benzenesulfonamide]",inhibitory rate,[1],98%
same,in vivo ATF4 expression inhibition ratio (%),[2],63%
same,"in vivo tumor proliferation inhibitory rate (%), GCN2 inhibitor","[3]; GCN2 inhibitor alone, 10 mg/kg oral twice per day for 9 days",1%
same,"in vivo tumor proliferation inhibitory rate (%), combined use",[3]; compound 10 mg/kg oral twice per day for 9 days combined with L-asparaginase 1000 U/kg s.c. once per day,64%
same,inhibitory rate,[4],42%

# — patent US10696651B2, “Heterocyclic compound” (Takeda Pharmaceutical Company Limited, priority 2016, dated 2020)
